Counter-ions that a name gives are not always drawn.
Key:
serotonin transporter = target: T1, serotonin transporter (Rattus norvegicus, UniProt P31652); experiment: 3H-paroxetine displacement, serotonin transporter affinity; type: binding
T1 construct: displace ^3H-paroxetine from male rat frontal cortical membranes; from tissue; host or cells: male rat frontal cortex membranes

human 5-HT1A receptors = target: T2, human 5-HT1A receptors (Homo sapiens, UniProt P08908); experiment: [3H] 8-OHDPAT displacement, 5-HT1A receptor affinity; type: binding
T2 construct: expressed in transfected cells; host or cells: CHO cells (stably transfected)
T2 sequence (P08908 1-422): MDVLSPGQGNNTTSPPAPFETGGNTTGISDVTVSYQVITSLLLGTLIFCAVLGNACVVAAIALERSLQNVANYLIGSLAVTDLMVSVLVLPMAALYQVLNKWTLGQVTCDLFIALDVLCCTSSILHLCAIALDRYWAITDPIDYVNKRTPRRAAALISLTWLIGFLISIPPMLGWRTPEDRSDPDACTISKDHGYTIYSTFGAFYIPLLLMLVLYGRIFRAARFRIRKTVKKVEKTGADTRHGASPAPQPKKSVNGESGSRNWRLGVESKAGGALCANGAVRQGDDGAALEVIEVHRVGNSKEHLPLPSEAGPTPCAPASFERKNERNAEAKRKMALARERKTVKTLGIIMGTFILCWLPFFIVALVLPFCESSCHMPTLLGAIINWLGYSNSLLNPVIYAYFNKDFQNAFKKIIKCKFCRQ
Source text: High affinity for the serotonin 5-HT1A receptor was established by testing the claimed compound's ability to displace [^3H] 8-OHDPAT (dipropylaminotetralin) from the 5-HT1A serotonin receptor following a modification of the procedure of Hall et al., J. Neurochem. 44, 1685 (1985) which utilizes CHO cells stably transfected with human 5-HT1A receptors.

[1] = target: T3, cloned human 5-HT1A receptors (Homo sapiens, UniProt P08908); experiment: 35S-GTPγS binding assay, 5-HT1A antagonist activity; type: biochemical; conditions: reversal of standard agonist 8-OHDPAT; for IC50: read-out: 5-HT1A Function IC50
T3 construct: expressed in transfected cells
T3 sequence (P08908 1-422): T2 sequence (P08908 1-422)
Description: Antagonist activity at 5-HT1A receptors was established by using a ^35S-GTPγS binding assay similar to that used by Lazareno and Birdsall (Br. J. Pharmacol. 109: 1120, 1993), in which the test compound's ability to affect the binding of ^35S-GTPγS to membranes containing cloned human 5-HT1A receptors was determined. Agonists produce an increase in binding whereas antagonists produce no increase but rather reverse the effects of the standard agonist 8-OHOPAT. The test compound's maximum inhibitory effect is represented as the Imax, while its potency is defined by the IC50.

T1 sequence (P31652 whole entry): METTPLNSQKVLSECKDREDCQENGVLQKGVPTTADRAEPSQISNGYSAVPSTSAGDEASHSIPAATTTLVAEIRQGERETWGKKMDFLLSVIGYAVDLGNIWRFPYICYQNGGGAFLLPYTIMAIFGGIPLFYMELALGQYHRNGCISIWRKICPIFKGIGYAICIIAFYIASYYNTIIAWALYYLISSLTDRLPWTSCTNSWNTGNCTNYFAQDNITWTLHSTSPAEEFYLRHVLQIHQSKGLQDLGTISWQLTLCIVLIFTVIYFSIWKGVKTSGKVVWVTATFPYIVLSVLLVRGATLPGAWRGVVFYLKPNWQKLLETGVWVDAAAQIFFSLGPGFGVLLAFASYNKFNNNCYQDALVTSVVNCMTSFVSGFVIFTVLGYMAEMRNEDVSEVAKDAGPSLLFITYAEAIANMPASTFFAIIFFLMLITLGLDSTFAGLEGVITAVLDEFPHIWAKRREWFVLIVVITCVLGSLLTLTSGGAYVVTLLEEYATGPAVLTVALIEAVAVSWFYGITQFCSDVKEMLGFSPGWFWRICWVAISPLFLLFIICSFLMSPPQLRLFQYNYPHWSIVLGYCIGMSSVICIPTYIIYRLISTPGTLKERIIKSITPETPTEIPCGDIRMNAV

Compound	melting point	Ki (serotonin transporter)	Ki (human 5-HT1A receptors)	IC50 [1]	5-HT1A Function Imax (maximum inhibitory effect) [1]
C1=C(c2c[nH]c3ccccc23)CCN(C[C@H]2COc3cccnc3O2)C1 (as salt: oxalate) [Example 1]	116 °C				
Fc1ccc2[nH]cc(C3=CCN(CC4COc5cccnc5O4)CC3)c2c1 (centres unmarked) (as salt: oxalate) [Example 2, 3-{[4-(5-Fluoro-1H-indol-3-yl)-3,6-dihydro-1(2H)-pyridinyl]methyl}-2,3-dihydro{1,4]dioxino[2,3-b]pyridine]	124 °C				
N#Cc1ccc2[nH]cc(C3=CCN(CC4COc5cccnc5O4)CC3)c2c1 (centres unmarked) (as salt: oxalate) [Example 3, 3-{1-[2,3-Dihydro[1,4]dioxino[2,3-b]pyridin-3-ylmethyl]-1,2,3,6-tetrahydro-4-pyridinyl}-1H-indole-5-carbonitrile]	165 °C				
Fc1ccc2c(C3=CCN(CC4COc5cccnc5O4)CC3)c[nH]c2c1 (centres unmarked) (as salt: oxalate) [Example 4, 3-{[4-(6-Fluoro-1H-indol-3-yl)-3,6-dihydro-1(2H)-pyridinyl]methyl}-2,3-dihydro[1,4]dioxino[2,3-b]pyridine]	120 °C				
C1=C(c2c[nH]c3ccccc23)CCN(C[C@H]2COc3cccnc3O2)C1 [Example 1]		9.5 nM	14.3 nM	197 nM	
Fc1ccc2[nH]cc(C3=CCN(CC4COc5cccnc5O4)CC3)c2c1 (centres unmarked) [Example 2, 3-{[4-(5-Fluoro-1H-indol-3-yl)-3,6-dihydro-1(2H)-pyridinyl]methyl}-2,3-dihydro{1,4]dioxino[2,3-b]pyridine]		2.39 nM	6.81 nM	57 nM	
N#Cc1ccc2[nH]cc(C3=CCN(CC4COc5cccnc5O4)CC3)c2c1 (centres unmarked) [Example 3, 3-{1-[2,3-Dihydro[1,4]dioxino[2,3-b]pyridin-3-ylmethyl]-1,2,3,6-tetrahydro-4-pyridinyl}-1H-indole-5-carbonitrile]		2.58 nM	22.4 nM	183 nM	100%
Fc1ccc2c(C3=CCN(CC4COc5cccnc5O4)CC3)c[nH]c2c1 (centres unmarked) [Example 4, 3-{[4-(6-Fluoro-1H-indol-3-yl)-3,6-dihydro-1(2H)-pyridinyl]methyl}-2,3-dihydro[1,4]dioxino[2,3-b]pyridine]		1.21 nM	10.2 nM	618 nM	

From US6987117B2, “Antidepressant azaheterocyclylmethyl derivatives of 1,4-dioxino[2,3-b]pyridine” (Wyeth, priority 2001, dated 2006)
